Measured values published in ChEMBL document CHEMBL1137533, “Activity of 7-methyljuglone derivatives against Mycobacterium tuberculosis and as subversive substrates for mycothiol disulfide reductase” (Bioorg Med Chem, 2007).
≈ marks a conversion by molar mass, not a printed value. Calls of active or inactive are those of the source. The calls are words filed in the database; no cut-off is given here.

Columns and labels:
[1] = test system: Mycobacterium tuberculosis; assay: Antimycobacterial activity against Mycobacterium tuberculosis H37Rv; type: functional
[2] = Selectivity index, ratio of IC50 for Vero cells to MIC of Mycobacterial tuberculosis H37Rv; type: functional
Vero = assay: Cytotoxicity against Vero cells after 48 hrs by XTT method; type: cell-based; conditions: Chlorocebus sabaeus
[3] = test system: Mycobacterium tuberculosis; assay: Antimycobacterial activity against Mycobacterium tuberculosis H37Rv at MIC; type: functional
[4] = test system: Mycobacterium tuberculosis; assay: Activity of Mycobacterium tuberculosis mycothiol reductase
[5] = test system: Mycobacterium tuberculosis; assay: Ratio of kcat to Km of Mycobacterium tuberculosis mycothiol reductase; design: unit not given here
[6] = test system: Mycobacterium tuberculosis; assay: Activity of Mycobacterium tuberculosis mycothiol reductase upto 800 uM

| SMILES | MIC [1] [µg/mL] | Ratio [2] | IC50 (Vero) [µg/mL] | Activity [3] [%] | Km [4] [µM] | kcat [4] [s⁻¹] | kcat/Km [5] | Activity [6] |
| --- | --- | --- | --- | --- | --- | --- | --- | --- |
| Cc1ccc2c(c1O)C(=O)C=CC2=O | 5 (≈ 26.6 µM) | 0.63 | 3.1 (≈ 16.5 µM) | – | – | – | – | – |
| CC(=O)Oc1cc(C)cc2c1C(=O)C=CC2=O | 2.5 (≈ 10.9 µM) | 2.4 | 6 (≈ 26.1 µM) | 99.9 | 389 | 3.17 | 8.15e+07 | – |
| CC(=O)Oc1cc(C)c(Cl)c2c1C(=O)C=CC2=O | 10 (≈ 37.8 µM) | 0.63 | 6.3 (≈ 23.8 µM) | 99.9 | – | – | – | – |
| COc1cc(C)cc2c1C(=O)C=CC2=O | 15 (≈ 74.2 µM) | 0.39 | 5.8 (≈ 28.7 µM) | 99.9 | – | – | – | – |
| CC(=O)Oc1cc(OC(C)=O)c2c(OC(C)=O)c(C)cc(Cl)c2c1OC(C)=O | > 20 | – | 149 (≈ 365 µM) | 99.9 | – | – | – | – |
| COc1cc(C)c(Cl)c2c1C(=O)C=CC2=O | > 20 | – | 7.7 (≈ 32.5 µM) | 99.9 | 435 | 0.142 | 3.3e+06 | – |
| CCOc1c(C)cc(Cl)c2c1C(=O)C=CC2=O | 15 (≈ 59.8 µM) | 0.83 | 12.5 (≈ 49.9 µM) | 99.9 | – | – | – | – |
| CCOc1cc(C)cc2c1C(=O)C=CC2=O | 15 (≈ 69.4 µM) | 0.42 | 6.3 (≈ 29.1 µM) | 99.9 | – | – | – | – |
| CCOc1cc(C)c(Cl)c2c1C(=O)C=CC2=O | > 20 | – | 36.1 (≈ 144 µM) | 99.9 | – | – | – | – |
| CC(=O)Oc1cc(OC(C)=O)c2c(OC(C)=O)cc(C)cc2c1OC(C)=O | > 20 | – | 17.2 (≈ 45.9 µM) | 99.9 | – | – | – | – |
| COc1c(C)cc(Cl)c2c1C(=O)C=CC2=O | 15 (≈ 63.4 µM) | 0.54 | 8 (≈ 33.8 µM) | 99.9 | – | – | – | – |
| CC(=O)Oc1cc(OC(C)=O)c2c(OC(C)=O)cc(C)c(Cl)c2c1OC(C)=O | > 20 | – | 27.8 (≈ 68 µM) | 99.9 | – | – | – | – |
| CC(=O)Oc1c(C)cc(Cl)c2c1C(=O)C=CC2=O | 10 (≈ 37.8 µM) | 2.1 | 21.1 (≈ 79.7 µM) | 99.9 | – | – | – | – |
| Cc1cc(O)c2c(c1)C(=O)C(O)=CC2=O | 5 (≈ 24.5 µM) | 0.63 | 3.1 (≈ 15.2 µM) | 99.9 | – | – | – | – |
| Cc1cc(O)c2c(c1Br)C(=O)C=CC2=O [5-BROMO-8-HYDROXY-6-METHYLNAPHTHALENE-1,4-DIONE] | 5 (≈ 18.7 µM) | 0.71 | 3.6 (≈ 13.5 µM) | – | – | – | – | – |
| Cc1cc(O)c2c(c1Cl)C(=O)C=CC2=O [5-CHLORO-8-HYDROXY-6-METHYLNAPHTHALENE-1,4-DIONE] | 10 (≈ 44.9 µM) | 0.25 | 2.5 (≈ 11.2 µM) | – | 233 | 0.212 | 9.1e+06 | – |
| Cc1cc(O)c2c(c1F)C(=O)C=CC2=O [5-FLUORO-8-HYDROXY-6-METHYLNAPHTHALENE-1,4-DIONE] | 10 (≈ 48.5 µM) | 0.76 | 7.6 (≈ 36.9 µM) | – | – | – | – | – |
| Cc1cc(Cl)c2c(c1O)C(=O)C=CC2=O [8-CHLORO-5-HYDROXY-6-METHYLNAPHTHALENE-1,4-DIONE] | 5 (≈ 22.5 µM) | 0.92 | 4.6 (≈ 20.7 µM) | 99.9 | 36 | 0.592 | 1.64e+08 | – |
| Cc1cc(O)c2c(c1)C(=O)C(c1c(C)cc3c(c1O)C(=O)C=CC3=O)=CC2=O [DIOSPYRIN] | 8 (≈ 21.4 µM) | 2.2 | 17.8 (≈ 47.5 µM) | – | 33 | 0.118 | 3.57e+07 | – |
| CC[C@@H](CO)NCCN[C@@H](CC)CO [ETHAMBUTOL] | 2 (≈ 9.79 µM) | >75 | > 150 | 99.9 | – | – | – | – |
| NNC(=O)c1ccncc1 [ISONIAZID] | 0.2 (≈ 1.46 µM) | >1000 | > 200 | 99.9 | – | – | – | – |
| CC1=CC(=O)c2ccccc2C1=O [MENADIONE] | 5 (≈ 29 µM) | 1.3 | 6.5 (≈ 37.8 µM) | 99.9 | 483 | 0.732 | 1.52e+07 | – |
| O=C1C=CC(=O)c2ccccc21 [NAPHTHOQUINONE] | 1 (≈ 6.32 µM) | 1.19 | 1.2 (≈ 7.59 µM) | 99.9 | 324 | 1.09 | 3.36e+07 | – |
| Cc1cc(O)c2c(c1)C(=O)C=C(c1c(C)cc(O)c3c1C(=O)C=CC3=O)C2=O [NEODIOSPYRIN] | 10 (≈ 26.7 µM) | 3.2 | 32 (≈ 85.5 µM) | – | 63 | 0.308 | 4.88e+07 | – |
| Cc1cc(O)c2c(c1)C(=O)C=CC2=O [RAMENTACEONE] | 0.5 (≈ 2.66 µM) | 30.22 | 15.1 (≈ 80.2 µM) | – | 254 | 2.37 | 9.31e+07 | – |
| Cc1cc(O)c2c(c1)[C@H](O)CCC2=O [SHINANOLONE] | > 100 | – | – | 99.9 | – | – | – | inactive |
| CN[C@@H]1[C@H](O[C@H]2[C@H](O[C@H]3[C@H](O)[C@@H](O)[C@H](N=C(N)N)[C@@H](O)[C@@H]3N=C(N)N)O[C@@H](C)[C@]2(O)C=O)O[C@@H](CO)[C@H](O)[C@H]1O [STREPTOMYCIN] | 1 (≈ 1.72 µM) | >120 | > 120 | 99.9 | – | – | – | – |
